Read-outs that look alike come from different tables or passages of the source. Values belong to the molecule of their own block, whether it stands above or below them.
Experiments:
PpASSY [1] = tested on: T1, PpASSY; assay: PPi release, molybdate/ascorbate assay, […] nm; assay type: biochemical, Pinus pinaster; conditions: 50 mM Tris-HCl pH 8, 25 °C, citrulline, aspartate, 3 mM ATP, 10 mM MgCl2, substrates above Km; partial inhibition
T1 construct: gene ASSY; mature form without predicted chloroplast transit peptide (TargetP-2.0, WoLF PSORT); N-terminal 6xHis (pDEST17), tag kept; E. coli; cloned cDNA 1218 nt

PpOTC [2] = tested on: T2, PpOTC; assay: phosphomolybdate Pi release assay, […] nm; assay type: biochemical, Pinus pinaster; conditions: 50 mM Tris-HCl pH 8.0, 25 °C, ornithine + carbamoyl-P above Km
T2 construct: gene OTC; mature form without predicted chloroplast transit peptide (TargetP-2.0, WoLF PSORT); N-terminal 6xHis (pDEST17), tag kept; E. coli; cloned cDNA 984 nt

PpASL [3] = tested on: T3, PpASL; assay: fumarate absorbance at […] nm; assay type: biochemical, Pinus pinaster; conditions: 50 mM Tris-HCl pH 8, 25 °C
T3 construct: gene ASL; mature form without predicted chloroplast transit peptide (TargetP-2.0, WoLF PSORT); N-terminal 6xHis (pDEST17), tag kept; E. coli; cloned cDNA 1398 nt

PpASSY [4] = tested on: T1, PpASSY; assay: PPi release, molybdate/ascorbate assay, […] nm; assay type: biochemical, Pinus pinaster; conditions: 50 mM Tris-HCl pH 8, 25 °C, 3 mM ATP, 10 mM MgCl2
PpOTC [5] = tested on: T2, PpOTC; assay: phosphomolybdate Pi release assay, […] nm; allosteric sigmoidal fit; assay type: biochemical, Pinus pinaster; conditions: 50 mM Tris-HCl pH 8.0, 25 °C, read-out: S0.5
PpASL [6] = tested on: T3, PpASL; assay: fumarate absorbance at […] nm; assay type: biochemical, Pinus pinaster; conditions: 50 mM Tris-HCl pH 8, 25 °C, argininosuccinate above Km
[7] = molecular target: recombinant Pinus pinaster argininosuccinate lyase (PpASL) (Pinus pinaster); assay: SEC; desalted purified recombinant enzymes loaded separately on an ENrich SEC 650 column calibrated with protein standards (29-669 kDa); holoenzyme mass from the partition coefficient (Kav); elution followed at 280 nm and confirmed by western blot
[8] = molecular target: recombinant Pinus pinaster argininosuccinate synthetase (PpASSY) (Pinus pinaster); assay: as above
[9] = molecular target: recombinant Pinus pinaster ornithine transcarbamylase (PpOTC) (Pinus pinaster); assay: as above

Molecule: N=C(N)NCCC[C@H](N)C(=O)O [arginine]
IC50 (PpASSY [1]): 1.94 mM | IC50 (PpOTC [2]; negative allosteric): 10.3 mM

Km (PpASL [3]): 220 ± 30 µM
Molecule: N=C(NCCC[C@H](N)C(=O)O)N[C@@H](CC(=O)O)C(=O)O [argininosuccinate]

Km (PpASSY [4]; 2 mM citrulline): 120 ± 50 µM
Molecule: N[C@@H](CC(=O)O)C(=O)O [aspartate]

Km (PpOTC [5]; ornithine co-substrate, negative cooperativity): 3480 ± 1400 µM
Molecule: NC(=O)OP(=O)(O)O [carbamoyl-P]

Km (PpASSY [4]; 2 mM aspartate): 120 ± 30 µM
Molecule: NC(=O)NCCC[C@H](N)C(=O)O [citrulline]

Km (PpOTC [5]; carbamoyl-P co-substrate (5 mM), positive cooperativity): 1280 ± 160 µM
Molecule: NCCC[C@H](N)C(=O)O [ornithine]

IC50 (PpASL [6]): 4.97 mM
Molecule: NCCCCNCCCN [spermidine]

IC50 (PpASL [6]): 19.2 mM
Molecule: NCCCNCCCCNCCCN [spermine]

IC50 (PpOTC [2]): 7.19 mM
Molecule: CC(C)[C@H](N)C(=O)O [valine]

stoichiometry N [7]: 4
Molecule: recombinant Pinus pinaster argininosuccinate lyase (PpASL) (enzyme)

stoichiometry N [8]: 4
Molecule: recombinant Pinus pinaster argininosuccinate synthetase (PpASSY) (enzyme)

stoichiometry N [9]: 3
Molecule: recombinant Pinus pinaster ornithine transcarbamylase (PpOTC) (enzyme)

— publication PMC7601404, “Enzymes Involved in the Biosynthesis of Arginine from Ornithine in Maritime Pine (Pinus pinaster Ait.)” (Plants, 2020)
